Laboratory results taken from PubChem BioAssay (NCI).
Several values for one entry are separate records, joined by “and”; a condition that tells them apart may be missing. Equal entries are not always repeated.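 Where inhibition never reached the appropriate level, the endpoint shown equals the highest concentration tested. Otherwise, values were interpolated linearly from a five-concentration, 48-hour dose response in 96-well plates. At the GI50, growth is halved. TGI marks complete inhibition of growth.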

Legend:
Assay in all cases: NCI tumour cell line growth inhibition, 48 h
[1] = tested on: HCT-116 colon
[2] = tested on: NCI-H522 lung
[3] = tested on: MOLT-4 leukemia
[4] = tested on: HOP-62 NSCLC
[5] = tested on: OVCAR-8 ovarian
[6] = tested on: LOX IMVI melanoma
[7] = tested on: SR leukemia
[8] = tested on: SW-620 colon
[9] = tested on: NCI-H23 lung
[10] = tested on: SF-268 CNS

SMILES | GI50 [1] | TGI [1] | GI50 [2] | TGI [2] | GI50 [3] | TGI [3] | GI50 [4] | TGI [4] | GI50 [5] | TGI [5] | GI50 [6] | TGI [6] | GI50 [7] | TGI [7] [µM] | GI50 [8] | TGI [8] | GI50 [9] | TGI [9] | GI50 [10] | TGI [10]
CC(C)CCN[C@@H]1CCc2cc(O)c(N3CC(=O)NS3(=O)=O)c(F)c2C1 | > 100000 nM | > 100 µM | > 100000 nM | > 100 µM | > 100000 nM | > 100 µM | > 100 µM | > 100 µM | > 100 µM | > 100 µM | 52700 nM | > 100 µM | 1780 nM | > 100 | > 100000 nM | > 100 µM | > 100 µM | > 100 µM | > 100 µM | > 100 µM
O=C(O)/C=C/C(=O)N1C/C(=C\c2ccccc2)C(=O)/C(=C/c2ccccc2)C1 |  | 3.48 µM |  | 4.94 µM |  | 9.26 µM |  | 41.7 µM |  | 11.7 µM |  | 10.5 µM |  | 41.6 |  | 6.09 µM |  | 23.9 µM |  | 16.8 µM
O=C1C2Nc3ccccc3SC2C(=O)N1c1ccccc1C(F)(F)F (stereo unspecified) |  | > 100 µM |  | 56.3 µM |  | > 100 µM |  | > 100 µM |  | > 100 µM |  | > 100 µM |  | > 100 |  | > 100 µM |  | 60.3 µM |  | > 100 µM
CC(C)COC(=O)c1ccc2[nH]c(O)c(C=Nc3ccc(S(N)(=O)=O)cc3)c2c1 | 613 nM | 3 µM | 4030 nM | 8.5 µM | 1680 nM | 11 µM | 1.58 µM | 4.84 µM | 1.04 µM | 4.62 µM | 666 nM | 4.06 µM | 360 nM | 6.43 | 671 nM | 3.83 µM | 1.33 µM | 5.11 µM | 1.22 µM | 4.45 µM
COc1ccc2nc(NC(=O)c3cccnc3Nc3cc(OC)c(OC)c(OC)c3)sc2c1 | 4500 nM | 18.4 µM | 2600 nM | 12 µM | 24200 nM | > 100 µM | 6.33 µM | 22.3 µM | 6.52 µM | 22.6 µM | 15700 nM | 42.2 µM | 2310 nM | 16.1 | 11800 nM | 24.5 µM | 5.38 µM | 22.7 µM | 4.43 µM | 18.9 µM
CN1C(Cl)=NS(=O)(=O)c2ccccc21 |  | > 100 µM |  | > 100 µM |  | > 100 µM |  | > 100 µM |  | > 100 µM |  | > 100 µM |  | > 100 |  | > 100 µM |  | > 100 µM |  | > 100 µM
C[C@H]1C(=O)CC[C@]2(C)CCC(C(C)(C)O)CC12O (stereo partly specified) |  | > 100 µM |  | > 100 µM |  | > 100 µM |  | > 100 µM |  | > 100 µM |  | > 100 µM |  | > 100 |  | > 100 µM |  | > 100 µM |  | > 100 µM
C=CS(=O)(=O)CCN1CC1 |  | > 10 µM |  | > 10 µM |  | > 10 µM |  | > 10 µM |  | > 10 µM |  | > 10 µM |  | > 10 |  | > 10 µM |  | > 10 µM |  | > 10 µM
[Cl][Cd][Cl] | 40300 nM and 48300 nM | 117 µM | 320 nM and 1390 nM and 349 nM | 3.65 µM and 1.55 µM | 31400 nM and 11800 nM | > 83.4 µM and 82.9 µM | 39.7 µM | 93.1 µM | 119 µM | 272 µM | 24800 nM | 75.9 µM | 52300 nM and 6160 nM | 500 | 19500 nM and 17200 nM | 37.1 µM and 76.7 µM | 3.08 µM and 25.4 µM and 2.68 µM | 58.1 µM and 10.8 µM | 16.5 µM and 8.95 µM | 33.9 µM and 24.4 µM
COc1ccc(Nc2c3ccccc3nc3[nH]c4ccccc4c23)cc1 | 4830 nM | 28 µM | 41500 nM | > 50 µM | 2350 nM | > 50 µM | 8.71 µM | 23.2 µM | 30.2 µM | > 50 µM | 6440 nM | 29.5 µM | 3840 nM | > 50 | 9890 nM | > 50 µM | > 50 µM | > 50 µM | 17.2 µM | > 50 µM
O=C(Nc1ccc(I)cc1F)c1cc(Cl)ccc1O | 403 nM | 1.95 µM | 324 nM | 4.68 µM | 1440 nM | 5.22 µM | 2.21 µM | 8 µM | 0.623 µM | 11 µM | 424 nM | 2.18 µM | 531 nM | > 100 | 737 nM | 12.7 µM | 0.386 µM | 3.79 µM | 0.507 µM | 7.06 µM
Oc1ccc(Cl)cc1CNc1nc2ccccc2[nH]1 | 12100 nM | 24.7 µM | 11900 nM | 27.7 µM | 10700 nM | > 100 µM | 11.8 µM | 27.2 µM | 12.9 µM | 30.8 µM | 13700 nM | 28.8 µM | 13400 nM | 59.4 | 15500 nM | 31.9 µM | 14.3 µM | 33.1 µM | 14.3 µM | 30.2 µM
Nn1c(N=Nc2c(O)[nH]c3c(Cl)cc(Cl)cc23)n[nH]c1=S |  | > 100 µM |  | > 100 µM |  | > 100 µM |  | > 100 µM |  | > 100 µM |  | > 100 µM |  | > 100 |  | > 100 µM |  | > 100 µM |  | > 100 µM
O=C(Nc1ccc(Cl)c(Cl)c1)OCCN1c2ccccc2Sc2ccccc21 |  | > 10 µM |  | > 10 µM |  | > 10 µM |  | > 10 µM |  | > 10 µM |  | > 10 µM |  | > 10 |  | > 10 µM |  | > 10 µM |  | > 10 µM
CC(Br)C(=O)Nc1ccc(C(=O)O)c(O)c1 (stereo unspecified) |  | > 100 µM |  | 47.1 µM |  | > 100 µM |  | > 100 µM |  | > 100 µM |  | > 100 µM |  | > 100 |  | > 100 µM |  | 68.9 µM |  | > 100 µM
COC1=C2CC(C)CC(OC)C(O)C(C)/C=C(\C)C(OC(N)=O)C(OC)/C=C\C=C(/C)C(=O)NC(=C(/C=N/N3CCCCC3)C1=O)C2=O (stereo unspecified) |  | 9.48 µM |  | 7.87 µM |  | 7.39 µM |  | 44.5 µM |  | 16.6 µM |  | 22.3 µM |  | 7.48 |  | 8.7 µM |  | 35.3 µM |  | 25.1 µM
O=C(NS(=O)(=O)c1ccccc1)C(Cc1ccccc1)C(Cc1ccccc1)C(=O)NS(=O)(=O)c1ccccc1 (stereo unspecified) |  | > 100 µM |  | > 100 µM |  | > 100 µM |  | > 100 µM |  | > 100 µM |  | > 100 µM |  | > 100 |  | > 100 µM |  | > 100 µM |  | > 100 µM
C=C1c2c(Cl)ccc(O)c2C(O)=C2C(=O)[C@]3(O)C(O)=C(C(N)=O)C(=O)[C@@H](N(C)C)[C@@H]3[C@@H](O)[C@H]12 | 970 nM | 3.22 µM | 1010 nM | 3.06 µM | 1890 nM | 12.3 µM | 0.984 µM | 3.1 µM | 1.32 µM | 8.12 µM | 924 nM | 3.59 µM | 1580 nM | > 50 | 1500 nM | > 50 µM | 1.08 µM | 4.14 µM | 1.41 µM | 7.16 µM
OCCN1CCN(CC/C=C2\c3ccccc3Sc3ccc(Cl)cc32)CC1 | 2390 nM and 1980 nM | 4.85 µM and 4.18 µM | 11600 nM and 1750 nM | 29.1 µM and 3.38 µM | 1760 nM and 2910 nM | 4.03 µM and 8.54 µM | 4.07 µM and 2.62 µM | 14.5 µM and 7.04 µM | 7.95 µM and 7.2 µM | 28.3 µM and 19.8 µM | 1960 nM and 1650 nM | 3.89 µM and 3.13 µM | 1700 nM | 4.59 | 2380 nM and 1910 nM | 5.48 µM and 4.01 µM | 10.7 µM and 7.72 µM | 28.2 µM and 21.4 µM | 2.58 µM and 4.5 µM | 10.9 µM and 15.1 µM
CCC(Oc1ccc(OC)c2ccccc(=O)c12)C(=O)O (stereo unspecified) |  | > 100 µM |  | > 100 µM |  | > 100 µM |  | > 100 µM |  | > 100 µM |  | > 100 µM |  | > 100 |  | > 100 µM |  | > 100 µM |  | > 100 µM
O=C1c2nc3n(c2C(=O)c2c1nc1n2CCC1)CCC3 | 4290 nM | 9.22 µM |  | 19.5 µM |  | > 67.6 µM | 5.19 µM | 15.9 µM | 7.87 µM | 22.5 µM | 3750 nM | 13.4 µM | 3580 nM | > 40.6 |  | 17.2 µM | 3.08 µM | 7.09 µM |  | 32 µM
CSc1cccc(NC(=O)OC2CCCCCCCCCCC2)c1 |  | 38.9 µM |  | 37.1 µM |  | > 100 µM |  | 48.3 µM |  | > 100 µM |  | 35.1 µM |  | > 100 |  | 45.9 µM |  | 98 µM |  | > 100 µM
COc1ccc(Nc2cc(C)nc(N3CCN(c4ccnc5cc(Cl)ccc45)CC3)n2)cc1 | 1340 nM | 3.24 µM | 2020 nM | 5.27 µM | 2900 nM | 19.7 µM | 3.89 µM | > 100 µM | 3.25 µM | > 100 µM | 2390 nM | 5.96 µM | 2680 nM | > 100 | 2730 nM | 13.2 µM | 3.82 µM | > 100 µM | 4.7 µM | > 100 µM
Cc1ccc(-c2nc(N3CCCNCC3)c3oc(-c4ccc(C)cc4)nc3n2)cc1 | 1570 nM | 2.92 µM | 1750 nM | 3.51 µM | 1770 nM | 3.59 µM | 8.78 µM | 24.3 µM | 2.11 µM | 4.22 µM | 1860 nM | 3.46 µM | 213 nM | 0.575 | 1660 nM | 3.2 µM | 19.9 µM | 88.2 µM | 1.77 µM | 3.48 µM
